What was measured:
[1] = tested on: lung fibrosis induced by radiation; test: Radiation induced fibrosis mouse model; type: in vivo; conditions: 60 mg/kg p.o. b.i.d.
Source text: Pneumonitis and lung fibrosis are the major radiation-induced complications following thoracic radiotherapy, which is one of the major treatment of lung and breast cancers, lymphomas and hematopoietic transplant conditioning. The objective of this model was to evaluate the effect of a compound of the invention in lung fibrosis induced by radiation in mice (Favaudon et al. 2014), in particular on lung functionality (Flexivent) and fibrosis marker (Collagen I).
7 weeks old (18-22 gr) female C57BL/6J mice from Charles River (Écully, France), batch number S1672) were maintained on 12 h light/dark cycle at 22° C. with ad libitum access to tap water and food. […]
Body weight was recorded once a week, and on D23, lung function measurement under anesthesia was realized by Flexivent (Devos et al. 2017) for all groups (6 successful measurement per group) before sacrifice.
Lungs were collected and fixed in 4% formaldehyde for 24 h before embedding in paraffin. […] The anti-collagen I antibody was detected and amplified by ImmPress kit (Vector Laboratories, 3, Accent Park, Bakewell Road, Orton Southgate, Peterborough, PE2 6XS, United Kingdom, Cat #MP-7401). The immunostained sections were then scanned (Nanozoomer, Hamamatsu) before quantification by image analysis (CaloPix software, TRIBVN Healthcare). Data were expressed as percentage collagen I area per area of lung tissue. […]

[2] = tested on: mouse CIA model; test: Collagen induced arthritis (CIA) model; type: in vivo; set-up: key: per paw 0 = none to 4 = maximal; sum of 4 paws, max 16
Method: Completed Freund's adjuvant (CFA) and incomplete Freund's adjuvant (IFA) were purchased from Difco. Bovine collagen type II (CII), lipopolysaccharide (LPS), and Enbrel® (etanercept) were obtained from Chondrex (L'Isle d'Abeau, France); Sigma (P4252, L'Isle d'Abeau, France), Whyet (25 mg injectable syringe, France), respectively. All other reagents used were of reagent grade and all solvents were of analytical grade.
DBA1/J mice (male, 7-8 weeks old) were obtained from Charles River Laboratories (Écully, France). Mice were kept on a 12 h light/dark cycle. Temperature was maintained at 22° C., and food and water were provided ad libitum.
One day before the experiment, CII solution (2 mg/mL) was prepared with 0.05 M acetic acid and stored at 4° C. Just before the immunization, equal volumes of adjuvant […] and CII were mixed by a homogenizer in a pre-cooled glass bottle in an ice water bath. Extra adjuvant and prolonged homogenization may be required if an emulsion is not formed. 0.2 mL of the emulsion was injected intradermally at the base of the tail of each mouse on day 1, a second booster intradermal injection (CII solution at 2 mg/mL in […]) was performed on […]. This immunization method was modified from published methods (Jou et al. 2005; Sims et al. 2004).
The therapeutic effects of the compounds were tested in the mouse CIA model. Mice were randomly divided into equal groups and each group contained 10 mice. All mice were immunized on day 1 and boosted on day 21. The negative control group was treated with vehicle (MC 0.5%) and the positive control group with Enbrel® (10 mg/kg, 3× week., sc). A compound of interest was typically tested at 3 doses per os (p.o.). At day 32, randomization between groups was performed with respect with clinical score and animals were therapeutically treated regarding their group until day 47. Body weight and clinical score, were recorded at least twice a week.
Arthritis is scored according to the method of Khachigian 2006, Lin et al 2007 and Nishida et al. 2004 (Khachigian 2006; Lin et al. 2007; Nishida et al. 2004). The swelling of each of the four paws is ranked with the arthritic score as follows: 0-no symptoms; 1-mild, but definite redness and swelling of one type of joint such as the ankle or wrist, or apparent redness and swelling limited to individual digits, regardless of the number of affected digits; 2-moderate redness and swelling of two or more types of joints; 3-severe redness and swelling of the entire paw including digits; 4-maximally inflamed limb with involvement of multiple joints (maximum cumulative clinical arthritis score 16 per animal) (Nishida et al. 2004).

COc1cc(-c2cnc3cc(OCCN4CCOCC4)ccn23)cc2c1C(=O)N(CC(F)(F)F)CC2 [Cpd 88, 8-methoxy-6-[7-(2-morpholinoethoxy)imidazo [1,2-a]pyridin-3-yl]-2-(2,2,2-trifluoroethyl)-3,4-dihydroisoquinolin-1-one]
ColI (collagen I) extent vs. vehicle group [1]: statistically significant reduction of ColI (collagen I) extent | CIA clinical score ([2]; 10 mg/kg b.i.d. p.o., day 32): 2.7 | CIA clinical score ([2]; 10 mg/kg b.i.d. p.o., day 33): 3.1 | CIA clinical score ([2]; 10 mg/kg b.i.d. p.o., day 35): 3.6 | CIA clinical score ([2]; 10 mg/kg b.i.d. p.o., day 36): 4.1 | CIA clinical score ([2]; 10 mg/kg b.i.d. p.o., day 39): 4.4 | CIA clinical score ([2]; 10 mg/kg b.i.d. p.o., day 40): 4.8 | CIA clinical score ([2]; 10 mg/kg b.i.d. p.o., day 41): 4.5 | CIA clinical score ([2]; 10 mg/kg b.i.d. p.o., day 42): 4.9 | CIA clinical score ([2]; 10 mg/kg b.i.d. p.o., day 43): 5.1 | CIA clinical score ([2]; 10 mg/kg b.i.d. p.o., day 46): 8.0 | CIA clinical score ([2]; 10 mg/kg b.i.d. p.o., day 47): 7.9 | CIA clinical score ([2]; 30 mg/kg b.i.d. p.o., day 32): 2.7 | CIA clinical score ([2]; 30 mg/kg b.i.d. p.o., day 33): 2.7 | CIA clinical score ([2]; 30 mg/kg b.i.d. p.o., day 35): 3.4 | CIA clinical score ([2]; 30 mg/kg b.i.d. p.o., day 36): 3.8 | CIA clinical score ([2]; 30 mg/kg b.i.d. p.o., day 39): 4.5 | CIA clinical score ([2]; 30 mg/kg b.i.d. p.o., day 40): 4.7 | CIA clinical score ([2]; 30 mg/kg b.i.d. p.o., day 41): 4.7 | CIA clinical score ([2]; 30 mg/kg b.i.d. p.o., day 42): 5.2 | CIA clinical score ([2]; 30 mg/kg b.i.d. p.o., day 43): 4.6 | CIA clinical score ([2]; 30 mg/kg b.i.d. p.o., day 46): 6.1 | CIA clinical score ([2]; 30 mg/kg b.i.d. p.o., day 47): 5.4 | CIA clinical score ([2]; 60 mg/kg b.i.d. p.o., day 32): 2.7 | CIA clinical score ([2]; 60 mg/kg b.i.d. p.o., day 33): 2.7 | CIA clinical score ([2]; 60 mg/kg b.i.d. p.o., day 35): 3.1 | CIA clinical score ([2]; 60 mg/kg b.i.d. p.o., day 36): 2.8 | CIA clinical score ([2]; 60 mg/kg b.i.d. p.o., day 39): 3.3 | CIA clinical score ([2]; 60 mg/kg b.i.d. p.o., day 40): 3.0 | CIA clinical score ([2]; 60 mg/kg b.i.d. p.o., day 41): 2.7 | CIA clinical score ([2]; 60 mg/kg b.i.d. p.o., day 42): 2.8 | CIA clinical score ([2]; 60 mg/kg b.i.d. p.o., day 43): 2.3 | CIA clinical score ([2]; 60 mg/kg b.i.d. p.o., day 46): 2.8 | CIA clinical score ([2]; 60 mg/kg b.i.d. p.o., day 47): 2.5

— patent US12264156B2, “Compounds and pharmaceutical compositions thereof for the treatment of diseases” (GALAPAGOS NV, priority 2018, dated 2025)
